According to patent EP4467141A1, “PYRAZOLO-QUINOLINES AS SELECTIVE INHIBITORS OF GENOTOXIC STRESS-INDUCED IKK/NF- KB PATHWAYS FOR CANCER THERAPY” (Max-Delbrück-Centrum für Molekulare Medizin in der …, priority 2023, dated 2024):

Assays:
Test in all cases: Kinase panel study
Assay type in all cases: biochemical
Conditions in all cases: read-out: Percentage of inhibition; for inhibition at 1 µM: 1000nM; for inhibition at 10 µM: 10000nM
EPHB2 = biological target: T1, EPHB2 (Homo sapiens, UniProt P29323)
T1 construct: purchased Thermo Fisher Scientific
T1 sequence (P29323 19-1055): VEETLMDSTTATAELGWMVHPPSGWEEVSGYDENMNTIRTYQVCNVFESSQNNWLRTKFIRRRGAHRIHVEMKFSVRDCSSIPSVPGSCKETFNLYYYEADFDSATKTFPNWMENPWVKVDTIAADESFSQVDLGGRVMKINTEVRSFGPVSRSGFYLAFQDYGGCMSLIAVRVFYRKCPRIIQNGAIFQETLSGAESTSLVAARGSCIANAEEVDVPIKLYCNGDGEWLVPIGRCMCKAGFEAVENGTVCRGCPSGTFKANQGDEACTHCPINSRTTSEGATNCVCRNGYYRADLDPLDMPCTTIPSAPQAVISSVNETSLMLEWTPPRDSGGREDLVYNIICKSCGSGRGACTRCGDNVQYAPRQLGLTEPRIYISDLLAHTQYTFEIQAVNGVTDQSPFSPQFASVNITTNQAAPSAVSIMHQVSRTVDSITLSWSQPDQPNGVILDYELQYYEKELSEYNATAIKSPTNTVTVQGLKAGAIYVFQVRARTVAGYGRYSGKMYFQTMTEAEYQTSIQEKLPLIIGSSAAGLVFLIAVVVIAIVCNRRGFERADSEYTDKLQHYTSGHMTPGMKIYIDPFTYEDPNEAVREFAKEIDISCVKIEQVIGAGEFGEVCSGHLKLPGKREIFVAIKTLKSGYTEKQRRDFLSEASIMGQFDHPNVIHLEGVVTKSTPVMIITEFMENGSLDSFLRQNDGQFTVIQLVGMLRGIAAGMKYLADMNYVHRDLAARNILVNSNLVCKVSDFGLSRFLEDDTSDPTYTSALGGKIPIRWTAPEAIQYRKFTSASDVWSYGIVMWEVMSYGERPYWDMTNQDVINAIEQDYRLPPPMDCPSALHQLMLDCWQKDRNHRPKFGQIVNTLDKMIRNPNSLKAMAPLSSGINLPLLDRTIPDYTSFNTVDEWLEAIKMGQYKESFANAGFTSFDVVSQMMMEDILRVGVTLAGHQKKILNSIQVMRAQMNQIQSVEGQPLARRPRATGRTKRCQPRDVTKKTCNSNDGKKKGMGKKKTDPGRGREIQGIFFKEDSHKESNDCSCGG
In short: (§1)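 Outsourced panel screen. Format: ZLyte or Adapta, run per the manufacturer's procedures. Read-out: inhibition (%) at a single dose of 10 µM or 1 µM; IC50s also generated.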

GRK4 = biological target: T2, GRK4 (Homo sapiens, UniProt P32298)
T2 construct: purchased Thermo Fisher Scientific
T2 sequence (P32298 whole entry): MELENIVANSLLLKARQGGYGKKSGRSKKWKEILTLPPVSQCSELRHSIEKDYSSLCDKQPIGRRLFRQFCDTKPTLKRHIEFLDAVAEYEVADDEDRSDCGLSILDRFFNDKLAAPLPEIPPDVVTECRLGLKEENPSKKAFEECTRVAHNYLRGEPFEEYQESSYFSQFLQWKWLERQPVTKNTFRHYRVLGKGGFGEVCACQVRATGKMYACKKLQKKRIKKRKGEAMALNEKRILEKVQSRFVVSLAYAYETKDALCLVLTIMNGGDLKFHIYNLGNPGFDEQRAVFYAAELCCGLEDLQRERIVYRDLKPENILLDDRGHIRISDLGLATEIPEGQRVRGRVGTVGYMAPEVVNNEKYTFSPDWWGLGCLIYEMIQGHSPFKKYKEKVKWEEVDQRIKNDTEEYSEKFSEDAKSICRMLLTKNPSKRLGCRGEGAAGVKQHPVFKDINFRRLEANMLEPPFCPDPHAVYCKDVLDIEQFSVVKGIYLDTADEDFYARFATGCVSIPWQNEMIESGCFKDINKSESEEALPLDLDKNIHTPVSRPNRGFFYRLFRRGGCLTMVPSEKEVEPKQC
In short: as §1

KDR (VEGFR2) = biological target: T3, KDR (VEGFR2) (Homo sapiens, UniProt P35968)
T3 construct: purchased Thermo Fisher Scientific
T3 sequence (P35968 20-1356): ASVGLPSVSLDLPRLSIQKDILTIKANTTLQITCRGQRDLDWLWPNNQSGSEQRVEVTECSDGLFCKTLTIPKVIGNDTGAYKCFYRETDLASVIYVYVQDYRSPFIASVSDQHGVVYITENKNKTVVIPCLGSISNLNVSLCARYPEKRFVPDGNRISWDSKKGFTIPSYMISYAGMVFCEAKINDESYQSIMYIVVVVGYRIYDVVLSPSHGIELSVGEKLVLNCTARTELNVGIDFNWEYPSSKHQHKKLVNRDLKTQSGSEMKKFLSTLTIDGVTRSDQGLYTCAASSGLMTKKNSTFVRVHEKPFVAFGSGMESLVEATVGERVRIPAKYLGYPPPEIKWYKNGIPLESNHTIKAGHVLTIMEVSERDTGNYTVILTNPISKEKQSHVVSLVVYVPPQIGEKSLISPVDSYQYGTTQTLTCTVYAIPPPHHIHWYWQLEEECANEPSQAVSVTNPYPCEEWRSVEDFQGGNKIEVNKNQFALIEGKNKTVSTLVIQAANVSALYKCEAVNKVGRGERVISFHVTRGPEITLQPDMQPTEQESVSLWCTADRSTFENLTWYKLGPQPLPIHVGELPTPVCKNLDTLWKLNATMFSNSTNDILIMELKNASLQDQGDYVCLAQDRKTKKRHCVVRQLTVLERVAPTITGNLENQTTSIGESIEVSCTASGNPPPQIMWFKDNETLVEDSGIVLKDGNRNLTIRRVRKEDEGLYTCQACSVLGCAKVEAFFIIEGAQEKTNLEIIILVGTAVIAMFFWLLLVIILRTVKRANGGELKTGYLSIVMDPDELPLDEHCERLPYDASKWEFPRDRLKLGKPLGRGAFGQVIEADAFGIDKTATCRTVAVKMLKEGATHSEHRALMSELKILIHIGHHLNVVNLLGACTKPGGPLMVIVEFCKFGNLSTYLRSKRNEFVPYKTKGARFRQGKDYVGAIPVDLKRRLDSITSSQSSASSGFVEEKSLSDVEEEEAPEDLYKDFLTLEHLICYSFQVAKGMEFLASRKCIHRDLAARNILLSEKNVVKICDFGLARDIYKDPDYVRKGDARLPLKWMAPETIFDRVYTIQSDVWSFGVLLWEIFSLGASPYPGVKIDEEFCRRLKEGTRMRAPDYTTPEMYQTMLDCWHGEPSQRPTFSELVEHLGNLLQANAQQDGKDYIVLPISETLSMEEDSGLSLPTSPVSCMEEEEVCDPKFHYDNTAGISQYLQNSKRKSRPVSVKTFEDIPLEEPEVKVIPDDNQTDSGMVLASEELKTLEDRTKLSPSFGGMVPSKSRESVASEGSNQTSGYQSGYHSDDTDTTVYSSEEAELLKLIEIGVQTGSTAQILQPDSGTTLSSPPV
In short: as §1

PRKD1 (PKC mu) = biological target: T4, PRKD1 (PKC mu) (Homo sapiens, UniProt Q15139)
T4 construct: purchased Thermo Fisher Scientific
T4 sequence (Q15139 1-912): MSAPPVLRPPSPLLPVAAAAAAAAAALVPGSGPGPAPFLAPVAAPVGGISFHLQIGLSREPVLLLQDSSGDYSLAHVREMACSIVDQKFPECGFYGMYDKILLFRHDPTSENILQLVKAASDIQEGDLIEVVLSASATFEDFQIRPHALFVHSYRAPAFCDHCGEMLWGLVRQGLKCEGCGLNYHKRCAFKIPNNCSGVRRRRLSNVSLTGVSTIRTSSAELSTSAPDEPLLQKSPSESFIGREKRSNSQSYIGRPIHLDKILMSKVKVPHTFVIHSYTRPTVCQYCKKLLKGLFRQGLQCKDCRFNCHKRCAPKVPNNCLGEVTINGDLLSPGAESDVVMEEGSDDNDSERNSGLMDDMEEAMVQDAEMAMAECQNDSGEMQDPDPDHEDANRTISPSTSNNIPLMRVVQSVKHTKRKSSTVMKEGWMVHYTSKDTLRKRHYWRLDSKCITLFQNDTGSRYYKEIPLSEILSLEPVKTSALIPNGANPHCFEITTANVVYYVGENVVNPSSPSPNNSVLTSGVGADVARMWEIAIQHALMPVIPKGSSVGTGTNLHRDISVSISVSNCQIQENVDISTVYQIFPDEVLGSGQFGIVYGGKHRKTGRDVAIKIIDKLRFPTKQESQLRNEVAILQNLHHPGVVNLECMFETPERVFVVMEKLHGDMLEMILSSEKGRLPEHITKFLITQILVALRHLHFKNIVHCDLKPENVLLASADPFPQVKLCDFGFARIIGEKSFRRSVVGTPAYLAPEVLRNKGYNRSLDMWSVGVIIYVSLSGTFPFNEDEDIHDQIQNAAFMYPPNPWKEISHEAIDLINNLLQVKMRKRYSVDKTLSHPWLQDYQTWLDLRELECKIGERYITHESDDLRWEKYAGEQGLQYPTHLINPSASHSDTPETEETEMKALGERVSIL
In short: as §1

RPS6KA4 (MSK2) = biological target: T5, RPS6KA4 (MSK2) (Homo sapiens, UniProt O75676)
T5 construct: purchased Thermo Fisher Scientific
T5 sequence (O75676 whole entry): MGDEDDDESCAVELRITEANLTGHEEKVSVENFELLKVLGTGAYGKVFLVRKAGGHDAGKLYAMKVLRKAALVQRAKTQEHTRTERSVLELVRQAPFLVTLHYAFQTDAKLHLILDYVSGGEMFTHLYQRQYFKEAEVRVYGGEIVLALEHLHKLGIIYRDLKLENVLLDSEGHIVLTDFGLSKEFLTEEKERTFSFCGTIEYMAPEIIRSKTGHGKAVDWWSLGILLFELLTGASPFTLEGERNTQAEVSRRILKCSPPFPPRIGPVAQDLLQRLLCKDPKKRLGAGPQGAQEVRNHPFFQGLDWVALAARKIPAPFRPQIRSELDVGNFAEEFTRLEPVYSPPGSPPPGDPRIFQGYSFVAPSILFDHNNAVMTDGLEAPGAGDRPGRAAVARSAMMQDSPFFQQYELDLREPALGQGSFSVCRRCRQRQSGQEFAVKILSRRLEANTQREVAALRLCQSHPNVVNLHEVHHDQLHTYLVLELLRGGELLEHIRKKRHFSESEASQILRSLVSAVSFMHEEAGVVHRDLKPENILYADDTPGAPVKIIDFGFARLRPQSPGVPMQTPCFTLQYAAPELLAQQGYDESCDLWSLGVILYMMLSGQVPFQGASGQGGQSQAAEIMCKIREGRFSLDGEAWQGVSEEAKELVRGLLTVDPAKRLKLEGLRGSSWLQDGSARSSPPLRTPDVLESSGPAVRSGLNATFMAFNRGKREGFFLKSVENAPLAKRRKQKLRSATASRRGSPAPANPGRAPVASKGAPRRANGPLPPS
In short: as §1

SRPK1 = biological target: T6, SRPK1 (Homo sapiens, UniProt Q96SB4)
T6 construct: purchased Thermo Fisher Scientific
T6 sequence (Q96SB4 whole entry): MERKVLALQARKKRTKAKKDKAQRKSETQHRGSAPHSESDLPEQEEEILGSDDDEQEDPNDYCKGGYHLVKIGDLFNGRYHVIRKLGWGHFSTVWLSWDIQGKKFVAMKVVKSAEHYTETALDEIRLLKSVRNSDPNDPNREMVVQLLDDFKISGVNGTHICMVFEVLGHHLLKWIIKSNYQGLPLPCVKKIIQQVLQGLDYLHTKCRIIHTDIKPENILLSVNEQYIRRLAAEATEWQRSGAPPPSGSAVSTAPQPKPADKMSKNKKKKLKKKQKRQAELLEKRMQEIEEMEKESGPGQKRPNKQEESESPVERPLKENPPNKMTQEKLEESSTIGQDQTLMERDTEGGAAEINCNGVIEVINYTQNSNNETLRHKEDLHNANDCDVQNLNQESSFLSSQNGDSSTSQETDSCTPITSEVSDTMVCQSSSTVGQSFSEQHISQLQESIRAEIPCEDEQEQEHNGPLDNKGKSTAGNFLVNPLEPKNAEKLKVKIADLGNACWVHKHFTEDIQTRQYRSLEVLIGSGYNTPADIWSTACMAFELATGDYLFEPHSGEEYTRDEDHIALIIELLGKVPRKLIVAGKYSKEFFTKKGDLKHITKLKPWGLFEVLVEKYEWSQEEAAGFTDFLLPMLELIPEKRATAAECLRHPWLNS
In short: as §1

COc1ccc2c(c1OC)c(=O)n1c3ccc(O)cc3c3ccnc2c31 [MW01, 5-Hydroxy-10,11-dimethoxy-9H-benzo[c]indolo[3,2,1-ij][1,5]naphthyridin-9-one]
inhibition at 1 µM (EPHB2): 10%
inhibition at 10 µM (EPHB2): 17%
inhibition at 1 µM (GRK4): 8%
inhibition at 10 µM (GRK4): 12%
inhibition at 1 µM (KDR (VEGFR2)): 24%
inhibition at 10 µM (KDR (VEGFR2)): 54%
inhibition at 1 µM (PRKD1 (PKC mu)): 28%
inhibition at 10 µM (PRKD1 (PKC mu)): 49%
inhibition at 1 µM (RPS6KA4 (MSK2)): 12%
inhibition at 10 µM (RPS6KA4 (MSK2)): 24%
inhibition at 1 µM (SRPK1): 12%
inhibition at 10 µM (SRPK1): 15%

COc1ccc2cc3c(N)nn(C(=O)c4cccc(N(C)C)c4)c3nc2c1 [MW05, (3-Amino-7-methoxypyrazolo[3,4-b]quinolin-1-yl)-[3-(dimethylamino)phenyl]methanone]
inhibition at 1 µM (EPHB2): 6%
inhibition at 10 µM (EPHB2): 1%
inhibition at 1 µM (GRK4): -1%
inhibition at 10 µM (GRK4): 2%
inhibition at 1 µM (KDR (VEGFR2)): 7%
inhibition at 10 µM (KDR (VEGFR2)): -15%
inhibition at 1 µM (PRKD1 (PKC mu)): 5%
inhibition at 10 µM (PRKD1 (PKC mu)): 9%
inhibition at 1 µM (RPS6KA4 (MSK2)): -3%
inhibition at 10 µM (RPS6KA4 (MSK2)): 4%
inhibition at 1 µM (SRPK1): 8%
inhibition at 10 µM (SRPK1): 10%
